From the NIST ThermoML archive (doi:10.1016/j.tca.2015.08.013)

Details: for vapor or sublimation pressure / mass density / kinematic viscosity / speed of sound: Liquid; for vapor or sublimation pressure: Ebulliometric method (Recirculating still); for surface tension liquid-gas: Drop volume; for mass density: Vibrating tube method; for kinematic viscosity / speed of sound: 101.33 kPa; for kinematic viscosity: Capillary tube (Ostwald / Ubbelohde) method; for speed of sound: Sing-around technique in a fixed-path interferometer

Cc1ccco1 [2-methylfuran]
Details | kinematic viscosity [m2/s] | speed of sound [m/s] | surface tension liquid-gas [mN/m] | vapor or sublimation pressure [kPa]
308.17 K | – | – | – | 35.04
310.12 K | – | – | – | 37.92
310.65 K | 3.92e-07 | 1106.8 | 22.71 | –
312.06 K | – | – | – | 41.03
313.15 K | 3.83e-07 | 1095.6 | 22.37 | –
314.02 K | – | – | – | 44.3
315.65 K | 3.74e-07 | 1084.4 | 22.08 | –
316.08 K | – | – | – | 47.94
317.22 K | – | – | – | 50.08
318.15 K | 3.66e-07 | 1073.3 | 21.69 | –
319.29 K | – | – | – | 54.16
320.65 K | 3.58e-07 | 1062.1 | 21.35 | –
321.15 K | – | – | – | 58.19
323.05 K | – | – | – | 62.23
323.15 K | 3.5e-07 | 1051 | 21 | –
325.57 K | – | – | – | 68.18
325.65 K | 3.42e-07 | 1039.9 | 20.7 | –
327.23 K | – | – | – | 72.31
328.15 K | 3.36e-07 | 1028.8 | 20.46 | –
329.07 K | – | – | – | 77.17
330.65 K | 3.28e-07 | 1017.7 | 20.08 | –
331.13 K | – | – | – | 82.86
333.15 K | 3.2e-07 | 1006.7 | 19.74 | –
333.27 K | – | – | – | 89.15
334.25 K | – | – | – | 92.22
335.65 K | 3.13e-07 | 995.68 | 19.41 | –
336.39 K | – | – | – | 99.03
337.09 K | – | – | – | 101.33
338.15 K | 3.07e-07 | 984.65 | 19.09 | –

Details | mass density [kg/m3]
310.65 K, 99 kPa | 894.953
313.15 K, 99 kPa | 891.871
313.15 K, 100 kPa | 891.87
313.15 K, 2500 kPa | 894.72
313.15 K, 5000 kPa | 897.62
313.15 K, 7500 kPa | 900.57
313.15 K, 10000 kPa | 903.14
313.15 K, 20000 kPa | 913.34
313.15 K, 30000 kPa | 922.45
313.15 K, 40000 kPa | 930.83
313.15 K, 50000 kPa | 938.5
313.15 K, 60000 kPa | 945.71
315.65 K, 99 kPa | 888.779
318.15 K, 99 kPa | 885.676
318.15 K, 100 kPa | 885.68
318.15 K, 2500 kPa | 888.8
318.15 K, 5000 kPa | 891.79
318.15 K, 7500 kPa | 894.77
318.15 K, 10000 kPa | 897.58
318.15 K, 20000 kPa | 907.94
318.15 K, 30000 kPa | 917.27
318.15 K, 40000 kPa | 925.75
318.15 K, 50000 kPa | 933.61
318.15 K, 60000 kPa | 941.15
320.65 K, 99 kPa | 882.558
323.15 K, 99 kPa | 879.425
323.15 K, 100 kPa | 879.43
323.15 K, 2500 kPa | 882.68
323.15 K, 5000 kPa | 885.8
323.15 K, 7500 kPa | 888.76
323.15 K, 10000 kPa | 891.8
323.15 K, 20000 kPa | 902.39
323.15 K, 30000 kPa | 911.96
323.15 K, 40000 kPa | 920.89
323.15 K, 50000 kPa | 929.01
323.15 K, 60000 kPa | 936.53
325.65 K, 99 kPa | 876.278
328.15 K, 99 kPa | 873.118
328.15 K, 100 kPa | 873.12
328.15 K, 2500 kPa | 876.29
328.15 K, 5000 kPa | 879.75
328.15 K, 7500 kPa | 882.71
328.15 K, 10000 kPa | 885.92
328.15 K, 20000 kPa | 896.99
328.15 K, 30000 kPa | 906.92
328.15 K, 40000 kPa | 915.88
328.15 K, 50000 kPa | 924.13
328.15 K, 60000 kPa | 931.92
330.65 K, 99 kPa | 869.944
333.15 K, 99 kPa | 866.753
333.15 K, 100 kPa | 866.75
333.15 K, 2500 kPa | 870.11
333.15 K, 5000 kPa | 873.62
333.15 K, 7500 kPa | 876.95
333.15 K, 10000 kPa | 880.01
333.15 K, 20000 kPa | 891.39
333.15 K, 30000 kPa | 901.64
333.15 K, 40000 kPa | 910.95
333.15 K, 50000 kPa | 919.48
333.15 K, 60000 kPa | 927.42
335.65 K, 99 kPa | 863.547
338.15 K, 99 kPa | 860.327
338.15 K, 100 kPa | 860.33
338.15 K, 2500 kPa | 863.95
338.15 K, 5000 kPa | 867.36
338.15 K, 7500 kPa | 870.91
338.15 K, 10000 kPa | 874.16
338.15 K, 20000 kPa | 886.03
338.15 K, 30000 kPa | 896.44
338.15 K, 40000 kPa | 905.99
338.15 K, 50000 kPa | 914.74
338.15 K, 60000 kPa | 922.79
